Molecular target: T1, KGSADH (α-ketoglutaric semialdehyde dehydrogenase) (Azospirillum brasilense, UniProt Q1JUP4)
T1 construct: gene araE; N-terminal His6-tag (pQE80L), expressed in E. coli DH10β, Ni-NTA purified; catalytic residues E253 and C287
Assay: product inhibition, A340 activity assay
Format: biochemical
Conditions: 2 mM NAD+, 100 mM phosphate pH 8

T1 sequence (Q1JUP4 2-481): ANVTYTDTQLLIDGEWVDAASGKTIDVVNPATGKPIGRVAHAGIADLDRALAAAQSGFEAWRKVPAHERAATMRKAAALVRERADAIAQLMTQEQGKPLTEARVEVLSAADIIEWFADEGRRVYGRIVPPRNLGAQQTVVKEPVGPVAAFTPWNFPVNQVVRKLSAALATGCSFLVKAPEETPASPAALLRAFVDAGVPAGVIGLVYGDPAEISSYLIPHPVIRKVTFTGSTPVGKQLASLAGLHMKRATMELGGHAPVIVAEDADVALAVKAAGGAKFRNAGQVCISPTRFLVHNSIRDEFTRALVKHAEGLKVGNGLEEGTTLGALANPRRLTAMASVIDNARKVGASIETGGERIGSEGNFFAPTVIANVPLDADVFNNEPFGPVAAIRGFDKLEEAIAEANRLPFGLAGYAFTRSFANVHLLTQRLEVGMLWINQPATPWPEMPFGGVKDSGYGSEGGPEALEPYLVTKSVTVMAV

% decrease in activity at 1 M: ~ 40%
Compound: O=C(O)CCO [3-HP, 3-hydroxypropionic acid]

— PMC5719400, “Engineering an aldehyde dehydrogenase toward its substrates, 3-hydroxypropanal and NAD^+, for enhancing the production of 3-hydroxypropionic acid” (Scientific Reports, 2017)
